In patent publication US10919911B2, “Tricyclic ASK1 inhibitors” (Terns, Inc., priority 2018, dated 2021):

target: ASK1 kinase (Homo sapiens (Human), UniProt Q99683); test: RBC Kinase Assay (33P-ATP radiometric, myelin basic protein substrate); type: biochemical; conditions: 20 ng ASK1 kinase, MBP substrate, 120 min at room temperature, 1% DMSO
Method: Example B1. RBC Kinase Assay Protocol
Base Reaction buffer: 20 mM Hepes (pH 7.5), 10 mM MgCl2, 1 mM EGTA, 0.02% Brij35, 0.02 mg/ml BSA, 0.1 mM Na3VO4, 2 mM DTT, and 1% DMSO were used for the assay.
Myelin base protein (MPB) was prepared in freshly prepared Base Reaction Buffer. 20 ng of ASK1 kinase was delivered into the substrate solution and gently mixed. Compounds in DMSO were delivered into the kinase reaction mixture (final DMSO concentration 1%). Commercially available 33P-ATP was delivered into the reaction mixture to initiate the reaction. The kinase reaction was incubated for 120 min. at room temperature. Reactions were spotted onto P81 ion exchange paper (Whatman #3698-915). Filters were washed extensively in 0.75% Phosphoric acid. Radioactivity on filters was read, and IC50 values were determined.

Sequence of ASK1 kinase (Q99683 whole entry): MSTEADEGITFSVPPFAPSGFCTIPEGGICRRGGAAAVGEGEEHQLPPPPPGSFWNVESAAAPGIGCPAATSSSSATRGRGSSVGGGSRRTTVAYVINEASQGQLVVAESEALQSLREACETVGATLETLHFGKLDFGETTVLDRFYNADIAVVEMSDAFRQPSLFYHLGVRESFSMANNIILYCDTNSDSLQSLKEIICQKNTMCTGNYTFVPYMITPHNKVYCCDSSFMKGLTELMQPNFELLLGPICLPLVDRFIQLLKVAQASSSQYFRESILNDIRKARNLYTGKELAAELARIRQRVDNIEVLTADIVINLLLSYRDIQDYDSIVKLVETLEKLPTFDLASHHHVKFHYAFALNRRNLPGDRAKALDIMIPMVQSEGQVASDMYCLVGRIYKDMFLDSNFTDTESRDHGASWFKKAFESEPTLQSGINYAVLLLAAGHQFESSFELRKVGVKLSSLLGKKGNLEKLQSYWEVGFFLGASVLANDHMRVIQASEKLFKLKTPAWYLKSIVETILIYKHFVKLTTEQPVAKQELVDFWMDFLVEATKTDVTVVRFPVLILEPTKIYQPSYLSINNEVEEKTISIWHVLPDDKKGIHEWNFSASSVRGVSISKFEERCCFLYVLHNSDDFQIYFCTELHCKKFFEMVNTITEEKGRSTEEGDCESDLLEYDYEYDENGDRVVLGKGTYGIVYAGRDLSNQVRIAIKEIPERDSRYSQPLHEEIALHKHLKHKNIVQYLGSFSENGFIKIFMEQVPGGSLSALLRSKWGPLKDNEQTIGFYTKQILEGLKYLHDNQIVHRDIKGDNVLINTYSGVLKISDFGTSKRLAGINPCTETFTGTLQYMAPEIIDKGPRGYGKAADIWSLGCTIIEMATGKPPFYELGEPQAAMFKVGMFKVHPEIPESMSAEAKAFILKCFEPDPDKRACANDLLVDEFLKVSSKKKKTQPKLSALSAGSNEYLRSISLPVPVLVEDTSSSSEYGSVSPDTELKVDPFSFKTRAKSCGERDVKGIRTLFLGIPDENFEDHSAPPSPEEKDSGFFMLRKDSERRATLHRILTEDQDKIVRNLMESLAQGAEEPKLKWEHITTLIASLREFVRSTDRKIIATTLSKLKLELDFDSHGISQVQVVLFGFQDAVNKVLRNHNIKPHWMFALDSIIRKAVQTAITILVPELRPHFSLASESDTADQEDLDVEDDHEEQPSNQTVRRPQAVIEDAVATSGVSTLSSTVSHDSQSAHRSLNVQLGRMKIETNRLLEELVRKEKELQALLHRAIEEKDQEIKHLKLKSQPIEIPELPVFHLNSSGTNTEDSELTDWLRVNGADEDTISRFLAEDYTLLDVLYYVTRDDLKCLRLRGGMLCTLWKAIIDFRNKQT

IC50 | Structure (SMILES)
307 nM | Cc1cc(F)c(C(=O)Nc2cccc3c2OCCn2cnc(C)c2-3)cc1-n1cnc(C2CC2)c1 [Example 51, 5-(4-cyclopropyl-1H-imidazol-1-yl)-2-fluoro-4-methyl-N-(1-methyl-5,6-dihydrobenzo[f]imidazo[1,5-d][1,4]oxazepin-8-yl)benzamide]
6.6 nM | Cc1cc(F)c(C(=O)Nc2cccc3c2OCCn2nnnc2-3)cc1-n1cnc(C2CC2)c1 [Example 79, 5-(4-cyclopropyl-1H-imidazol-1-yl)-N-(5,6-dihydrobenzo[f]tetrazolo[1,5-d][1,4]oxazepin-8-yl)-2-fluoro-4-methylbenzamide]
6 nM | C[C@H]1CN(c2cnc(C(=O)Nc3cccc4c3OCCn3nnnc3-4)cc2-n2cnc(C3CC3)c2)CCO1 [Example 66, (S)-4-(4-cyclopropyl-1H-imidazol-1-yl)-N-(5,6-dihydrobenzo[f]tetrazolo[1,5-d][1,4]oxazepin-8-yl)-5-(2-methylmorpholino)picolinamide]
5.6 nM | CC1(C)COc2c(NC(=O)c3cc(-n4cnc(C5CC5)c4)c(N4CCOCC4)cn3)cccc2-c2nncn21 [Example 36, 4-(4-cyclopropyl-1H-imidazol-1-yl)-N-(5,5-dimethyl-5,6-dihydrobenzo[f][1,2,4]triazolo[4,3-d][1,4]oxazepin-8-yl)-5-morpholinopicolinamide]
3.5 nM | O=C(Nc1cccc2c1OCCn1nnnc1-2)c1cc(-n2cnc(C3CC3)c2)c(N2CC[C@H](O)C2)cn1 [Example 61, (S)-4-(4-cyclopropyl-1H-imidazol-1-yl)-N-(5,6-dihydrobenzo[f]tetrazolo[1,5-d][1,4]oxazepin-8-yl)-5-(3-hydroxypyrrolidin-1-yl)picolinamide]
0.9 nM | Cc1cc(F)c(C(=O)Nc2cccc3c2O[C@H](C)Cn2nnnc2-3)cc1-n1cnc(C2CC2)c1 [Example 43, (R)-5-(4-cyclopropyl-1H-imidazol-1-yl)-2-fluoro-4-methyl-N-(6-methyl-5,6-dihydrobenzo[f]tetrazolo[1,5-d][1,4]oxazepin-8-yl)benzamide]
5.5 nM | C[C@@H]1COc2c(NC(=O)c3cc(-n4cnc(C5CC5)c4)c(N4CCOCC4)cn3)cccc2-c2nncn21 [Example 39, (R)-4-(4-cyclopropyl-1H-imidazol-1-yl)-N-(5-methyl-5,6-dihydrobenzo[f][1,2,4]triazolo[4,3-d][1,4]oxazepin-8-yl)-5-morpholinopicolinamide]
8.5 nM | Cc1cc(F)c(C(=O)Nc2cccc3c2OCCn2cnnc2-3)cc1-n1cnc(C2CC2)c1 [Example 7, 5-(4-cyclopropyl-1H-imidazol-1-yl)-N-(5,6-dihydrobenzo[f][1,2,4]triazolo[4,3-d][1,4]oxazepin-8-yl)-2-fluoro-4-methylbenzamide]
8 nM | Cc1cc(F)c(C(=O)Nc2cccc3c2OC[C@H](CF)n2nnnc2-3)cc1-n1cnc(C2CC2)c1 [Example 26, (R)-5-(4-cyclopropyl-1H-imidazol-1-yl)-2-fluoro-N-(5-(fluoromethyl)-5,6-dihydrobenzo[f]tetrazolo[1,5-d][1,4]oxazepin-8-yl)-4-methylbenzamide]
7.7 nM | C[C@H]1COc2c(NC(=O)c3cc(-n4cnc(C5CC5)c4)ccn3)cccc2-c2nnnn21 [Example 6, (S)-4-(4-cyclopropyl-1H-imidazol-1-yl)-N-(5-methyl-5,6-dihydrobenzo[f]tetrazolo[1,5-d][1,4]oxazepin-8-yl)picolinamide]
39.8 nM | Cc1cc(F)c(C(=O)Nc2cccc3c2OCCn2cnc(Br)c2-3)cc1-n1cnc(C2CC2)c1 [Example 74, N-(1-bromo-5,6-dihydrobenzo[f]imidazo[1,5-d][1,4]oxazepin-8-yl)-5-(4-cyclopropyl-1H-imidazol-1-yl)-2-fluoro-4-methylbenzamide]
5.2 nM | Cc1cc(F)c(C(=O)Nc2cccc3c2OCC(C)(C)n2nnnc2-3)cc1-n1cnc(C2CC2)c1 [Example 13, 5-(4-cyclopropyl-1H-imidazol-1-yl)-N-(5,5-dimethyl-5,6-dihydrobenzo[f]tetrazolo[1,5-d][1,4]oxazepin-8-yl)-2-fluoro-4-methylbenzamide]
4.1 nM | O=C(Nc1cccc2c1OC[C@H](CF)n1cnnc1-2)c1cc(-n2cnc(C3CC3)c2)ccn1 [Example 33, (R)-4-(4-cyclopropyl-1H-imidazol-1-yl)-N-(5-(fluoromethyl)-5,6-dihydrobenzo[f][1,2,4]triazolo[4,3-d][1,4]oxazepin-8-yl)picolinamide]
4.2 nM | Cc1cc(F)c(C(=O)Nc2cccc3c2OC2(CC2)Cn2nnnc2-3)cc1-n1cnc(C2CC2)c1 [Example 59, 5-(4-cyclopropyl-1H-imidazol-1-yl)-2-fluoro-4-methyl-N-(5H-spiro[benzo[f]tetrazolo[1,5-d][1,4]oxazepine-6,1′-cyclopropan]-8-yl)benzamide]
15.1 nM | Cc1cc(F)c(C(=O)Nc2cccc3c2OC[C@H](C)n2cncc2-3)cc1-n1cnc(C2CC2)c1 [Example 46, (S)-5-(4-cyclopropyl-1H-imidazol-1-yl)-2-fluoro-4-methyl-N-(5-methyl-5,6-dihydrobenzo[f]imidazo[1,5-d][1,4]oxazepin-8-yl)benzamide]
5.3 nM | Cc1cc(F)c(C(=O)Nc2cccc3c2OC2(CC2)Cn2cnnc2-3)cc1-n1cnc(C2CC2)c1 [Example 45, 5-(4-cyclopropyl-1H-imidazol-1-yl)-2-fluoro-4-methyl-N-(5H-spiro[benzo[f][1,2,4]triazolo[4,3-d][1,4]oxazepine-6,1′-cyclopropan]-8-yl)benzamide]
10.9 nM | Cc1cc(F)c(C(=O)Nc2cccc3c2OC[C@@H](CO)n2nnnc2-3)cc1-n1cnc(C2CC2)c1 [Example 17, (R)-5-(4-cyclopropyl-1H-imidazol-1-yl)-2-fluoro-N-(5-(hydroxymethyl)-5,6-dihydrobenzo[f]tetrazolo[1,5-d][1,4]oxazepin-8-yl)-4-methylbenzamide]
4.2 nM | Cc1cc(F)c(C(=O)Nc2cccc3c2OCC2(CC2)n2nnnc2-3)cc1-n1cnc(C2CC2)c1 [Example 14, 5-(4-cyclopropyl-1H-imidazol-1-yl)-2-fluoro-4-methyl-N-(6H-spiro[benzo[f]tetrazolo[1,5-d][1,4]oxazepine-5,1′-cyclopropan]-8-yl)benzamide]
3.1 nM | Cc1cc(F)c(C(=O)Nc2cccc3c2OC[C@H](CF)n2cnnc2-3)cc1-n1cnc(C2CC2)c1 [Example 32, (R)-5-(4-cyclopropyl-1H-imidazol-1-yl)-2-fluoro-N-(5-(fluoromethyl)-5,6-dihydrobenzo[f][1,2,4]triazolo[4,3-d][1,4]oxazepin-8-yl)-4-methylbenzamide]
6 nM | O=C(Nc1cccc2c1OCCn1nnnc1-2)c1cc(-n2cnc(C3CC3)c2)c(N2CCOCC2)cn1 [Example 21, 4-(4-cyclopropyl-1H-imidazol-1-yl)-N-(5,6-dihydrobenzo[f]tetrazolo[1,5-d][1,4]oxazepin-8-yl)-5-morpholinopicolinamide]
3.3 nM | O=C(Nc1cccc2c1OCC1(CC1)n1cnnc1-2)c1cc(-n2cnc(C3CC3)c2)c(N2CCOCC2)cn1 [Example 25, 4-(4-cyclopropyl-1H-imidazol-1-yl)-5-morpholino-N-(6H-spiro[benzo[f][1,2,4]triazolo[4,3-d][1,4]oxazepine-5,1′-cyclopropan]-8-yl)picolinamide]
4.7 nM | Cc1cc(F)c(C(=O)Nc2cccc3c2OC[C@@H](C2CC2)n2nnnc2-3)cc1-n1cnc(C2CC2)c1 [Example 12, (R)-5-(4-cyclopropyl-1H-imidazol-1-yl)-N-(5-cyclopropyl-5,6-dihydrobenzo[f]tetrazolo[1,5-d][1,4]oxazepin-8-yl)-2-fluoro-4-methylbenzamide]
5.9 nM | CN1CCN(c2cnc(C(=O)Nc3cccc4c3OCCn3nnnc3-4)cc2-n2cnc(C3CC3)c2)CC1 [Example 54, 4-(4-cyclopropyl-1H-imidazol-1-yl)-N-(5,6-dihydrobenzo[f]tetrazolo[1,5-d][1,4]oxazepin-8-yl)-5-(4-methylpiperazin-1-yl)picolinamide]
5.1 nM | O=C(Nc1cccc2c1OCCn1nnnc1-2)c1cc(-n2cnc(C3CC3)c2)c(N2C[C@H]3C[C@@H]2CO3)cn1 [Example 62, 5-((1R,4R)-2-oxa-5-azabicyclo[2.2.1]heptan-5-yl)-4-(4-cyclopropyl-1H-imidazol-1-yl)-N-(5,6-dihydrobenzo[f]tetrazolo[1,5-d][1,4]oxazepin-8-yl)picolinamide]
5.7 nM | O=C(Nc1cccc2c1OC[C@@H](CF)n1nnnc1-2)c1cc(-n2cnc(C3CC3)c2)ccn1 [Example 31, (S)-4-(4-cyclopropyl-1H-imidazol-1-yl)-N-(5-(fluoromethyl)-5,6-dihydrobenzo[f]tetrazolo[1,5-d][1,4]oxazepin-8-yl)picolinamide]
4.5 nM | Cc1cc(F)c(C(=O)Nc2cccc3c2OC[C@@H](CF)n2cnnc2-3)cc1-n1cnc(C2CC2)c1 [Example 28, (S)-5-(4-cyclopropyl-1H-imidazol-1-yl)-2-fluoro-N-(5-(fluoromethyl)-5,6-dihydrobenzo[f][1,2,4]triazolo[4,3-d][1,4]oxazepin-8-yl)-4-methylbenzamide]
3.2 nM | C[C@@H]1CN(c2cnc(C(=O)Nc3cccc4c3OC[C@H](C)n3nnnc3-4)cc2-n2cnc(C3CC3)c2)CCO1 [Example 76, 4-(4-cyclopropyl-1H-imidazol-1-yl)-N—((S)-5-methyl-5,6-dihydrobenzo[f]tetrazolo[1,5-d][1,4]oxazepin-8-yl)-5-((R)-2-methylmorpholino)picolinamide]
5.7 nM | Cc1cc(F)c(C(=O)Nc2cccc3c2OCCn2cncc2-3)cc1-n1cnc(C2CC2)c1 [Example 41, 5-(4-cyclopropyl-1H-imidazol-1-yl)-N-(5,6-dihydrobenzo[f]imidazo[1,5-d][1,4]oxazepin-8-yl)-2-fluoro-4-methylbenzamide]
